Data on 26 compounds can be found in patent US7384961B2, “Saturated and unsaturated heteroarylcycloalkylmethyl amines as anti-depressants” (priority 2002, dated 2008).

Structures can show the parent of a compound that is named as a salt. Where two headings read alike, the source gives them in different places.

One test concerns the target T1, 5-HT re-uptake (Rattus norvegicus, UniProt P31652).
T1 construct: synaptosomes are freshly isolated from rat brain areas; from tissue; host or cells: rat brain synaptosomes (P2 fraction), medulla + pons region, male rats
The test can be described thus: Inhibition of 5-HT re-uptake in rat brain synaptosomes (P2 fraction, medulla + pons). It is filed as biochemical. The following applies: for inhibition at 10 µM: 10 μmol/l. The text has this: (§1) a) Investigations of the Inhibition of the Re-uptake of 5-HT and NA
(§2) In order to be able to carry out these in vitro studies, synaptosomes are freshly isolated from rat brain areas. […] These vesicular particles are isolated from the hypothalamus for the NA re-uptake and from the medulla +pons region of male rat brains for the 5-HT re-uptake.
(§3) The IC50 values were obtained with the aid of the “Figure P” computer program (version 6.0, Biosoft, Cambridge, England). […] The “Ligand” computer program (version 4, Biosoft, England) was used to obtain KD values.

A further test concerns the target T2, NA re-uptake (Rattus norvegicus, UniProt Q63380).
T2 construct: synaptosomes are freshly isolated from rat brain areas; from tissue; host or cells: rat brain synaptosomes (P2 fraction), hypothalamus
The test can be described thus: Inhibition of NA re-uptake in rat brain synaptosomes (P2 fraction, hypothalamus). It is filed as biochemical. The following applies: for inhibition at 10 µM: 10 μmol/l.
Excerpt: as §1, §2, §3

A further test concerns mice. The test can be described thus: Formalin test in mice (analgesic action, chronic pain component). It is filed as in vivo. The following applies: for Inhibition of the nociceptive behaviour versus control; % inhibition: mice. On the procedure:
b) Investigations of the Analgesic Actions in the Formalin Test in Mice
The formalin test (Dubuisson, D. and Dennis, S. G., 1977, Pain, 4, 161-174) represents a model of acute and chronic pain. The chronic pain component was evaluated in the investigations described here.
A biphase nociceptive reaction which is recorded by observing three behaviour patterns which can be clearly differentiated from one another is induced in freely mobile test animals by a single formalin injection into the dorsal side of a hind paw.
Formalin is administered subcutaneously into the dorsal side of the right hind paw of each animal in a volume of 20 μl and a concentration of 1%.
The specific changes in behaviour which differ from the normal behaviour (score 0), such as raising (score 1) and shaking the paw (score 2) and biting and licking reactions (score 3), are observed and recorded continuously at component intervals of 3 min for up to 60 min after the administration of formalin. The changes in behaviour are weighted in different ways (score 0-3) and a pain rate (PR) is calculated using the following formula: PR=[(T0×0)+(T1×1)+(T2×2)+(T3×3)]/180.
The group size is 10 animals (n=10).
On the basis of the PR calculations, the action of the substance was determined as the change from a control in percent. The ED50 was determined by means of regression analysis.

T1 sequence (P31652 whole entry): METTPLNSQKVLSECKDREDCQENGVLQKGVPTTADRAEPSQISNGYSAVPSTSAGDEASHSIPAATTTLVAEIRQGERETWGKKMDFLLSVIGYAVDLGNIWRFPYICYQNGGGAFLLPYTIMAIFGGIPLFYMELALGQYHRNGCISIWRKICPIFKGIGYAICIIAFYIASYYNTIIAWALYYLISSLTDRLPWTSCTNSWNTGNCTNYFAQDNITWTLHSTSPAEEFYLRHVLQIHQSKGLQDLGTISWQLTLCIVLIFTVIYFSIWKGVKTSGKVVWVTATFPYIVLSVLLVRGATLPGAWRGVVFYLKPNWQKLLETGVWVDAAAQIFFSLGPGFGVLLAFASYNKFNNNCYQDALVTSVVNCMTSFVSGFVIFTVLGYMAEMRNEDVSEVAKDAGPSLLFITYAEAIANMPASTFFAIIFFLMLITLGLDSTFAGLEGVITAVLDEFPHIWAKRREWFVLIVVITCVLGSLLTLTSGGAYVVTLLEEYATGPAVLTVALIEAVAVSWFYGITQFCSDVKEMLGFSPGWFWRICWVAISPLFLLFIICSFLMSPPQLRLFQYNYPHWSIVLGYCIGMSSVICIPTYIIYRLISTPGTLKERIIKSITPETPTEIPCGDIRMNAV
T2 sequence (Q63380 1-617): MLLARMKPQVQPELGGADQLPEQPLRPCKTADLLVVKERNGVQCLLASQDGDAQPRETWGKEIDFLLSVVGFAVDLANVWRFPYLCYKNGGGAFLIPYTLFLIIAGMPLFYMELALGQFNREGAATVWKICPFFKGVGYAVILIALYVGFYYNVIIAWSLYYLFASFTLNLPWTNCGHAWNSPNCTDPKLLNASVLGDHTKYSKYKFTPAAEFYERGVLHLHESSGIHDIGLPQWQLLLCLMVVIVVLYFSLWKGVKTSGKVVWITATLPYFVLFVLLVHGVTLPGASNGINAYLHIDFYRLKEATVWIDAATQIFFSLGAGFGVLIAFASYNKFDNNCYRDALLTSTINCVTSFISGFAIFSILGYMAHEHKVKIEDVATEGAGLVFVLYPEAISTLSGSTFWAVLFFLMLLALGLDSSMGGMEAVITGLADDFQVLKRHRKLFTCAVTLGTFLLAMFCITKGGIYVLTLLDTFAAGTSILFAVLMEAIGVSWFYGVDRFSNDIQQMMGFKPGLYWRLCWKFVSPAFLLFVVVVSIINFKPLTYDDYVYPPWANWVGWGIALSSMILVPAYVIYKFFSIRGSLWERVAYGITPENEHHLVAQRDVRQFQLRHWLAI

Usually inhibition stands for how much of the control response was suppressed. In the case of `CN(C)C[C@@H]1CCCC[C@@H]1c1cccnc1` (relative stereo) [Example 6, cis-Dimethyl-(2-pyridin-3-yl-cyclohexylmethyl)amine hydrochloride], the inhibition at 10 µM at 5-HT re-uptake was found to be 94%; against NA re-uptake, 25%.
`CN(C)C[C@@H]1CCCC[C@H]1c1cccnc1.Cl` (relative stereo) [Example 7, trans-Dimethyl-(2-pyridin-3-yl-cyclohexylmethyl)amine hydrochloride]: the inhibition at 10 µM came to 95% on 5-HT re-uptake and 22% against NA re-uptake. In addition, in the test with mice (Mus musculus, iv, read-out: Inhibition of the nociceptive behaviour versus control, ED50 value), the ED50 was determined as 2.55 mg/kg.
Take `CN(C)C[C@@H]1CCCCC[C@@H]1c1cccnc1` (relative stereo) [Example 26, cis-Dimethyl-(2-pyridin-3-yl-cycloheptylmethyl)-amine hydrochloride]: the results for the inhibition at 10 µM at 5-HT re-uptake and at NA re-uptake were 82% and 28%, respectively.
Taken in the same sequence, the figures for `CN(C)C[C@@H]1CCCCC[C@H]1c1cccnc1` (relative stereo) [Example 27, trans-Dimethyl-(2-pyridin-3-yl-cycloheptylmethyl)-amine hydrochloride] were 88% and 54%.
Turning to `CN(C)C[C@@H]1CSCC[C@@]1(O)c1cccnc1.Cl` (relative stereo) [Example 50, cis-3-Dimethylaminomethyl-4-pyridin-3-yl-tetrahydrothiopyran-4-ol hydrochloride], on 5-HT re-uptake, the “5-HT re-uptake inhibition (10 μmol/l)” value is reported as 54%. The “NA re-uptake inhibition (10 μmol/l)” value at NA re-uptake worked out at 29%. Besides, the “Inhibition of the nociceptive behaviour versus control; % inhibition” value (“Inhibition … % inhibition” for short) in the test with mice (21.5 mg/kg i.v.) turned out to be 37.0%.
For the compound `COc1cncc([C@@H]2CCCCCC[C@H]2CN(C)C)c1` (relative stereo) [Example 70, trans-[2-(5-Methoxy-pyridin-3-yl)-cyclooctylmethyl]-dimethyl-amine and the corresponding hydrochloride], the “5-HT re-uptake inhibition (10 μmol/l)” value on 5-HT re-uptake came to 89%. For the same compound, the “NA re-uptake inhibition (10 μmol/l)” value at NA re-uptake is reported as 52%.
`COc1cncc([C@H]2CCCCCC[C@H]2CN(C)C)c1` (relative stereo) [Example 72, cis-[2-(5-Methoxy-pyridin-3-yl)-cyclooctylmethyl] -dimethyl-amine hydrochloride]: the inhibition at 10 µM at 5-HT re-uptake was 60%; against NA re-uptake it was 53%.
`CNCC1=C(c2cccnc2)CCCC1.Cl` [Example 2, Methyl-(2-pyridin-3-yl-cyclohex-1-enylmethyl)amine hydrochloride]: the inhibition at 10 µM was found to be 69% on 5-HT re-uptake and 15% at NA re-uptake. For the same compound, in the test on mice (21.5 mg/kg i.v.), the “Inhibition … % inhibition” value is 88%.
Turning to `CN(CC1=C(c2cccnc2)CCCC1)Cc1ccccc1.Cl` [Example 10, Benzylmethyl-(2-pyridin-3-yl-cyclohex-1-enylmethyl)amine hydrochloride], the “Inhibition … % inhibition” value with mice (10 mg/kg i.v.) was 66.3%.
For the compound `CN(C)CC1CCCCCC1(Cl)c1ccc(Cl)nc1` (stereo not drawn) [Example 13, [2-Chloro-2-(6-chloro-pyridin-3-yl)-cycloheptylmethyl]-dimethyl-amine hydrochloride], the values for the inhibition at 10 µM at 5-HT re-uptake and on NA re-uptake were 38% and 75%, respectively.
Taken in the same sequence, the figures for `CN(C)CC1CCCCC1(Cl)c1cccnc1` (stereo not drawn) [Example 14, (2-Chloro-2-pyridin-3-yl-cyclohexylmethyl)-dimethyl-amine hydrochloride] were 73% and 27%.
With `CN(C)CC1CCCCC1(Cl)c1ccc(Cl)nc1` (stereo not drawn) [Example 15, [2-Chloro-2-(6-chloro-pyridin-3-yl)-cyclohexylmethyl]-dimethyl-amine hydrochloride], the inhibition at 10 µM on 5-HT re-uptake was determined as 51%; against NA re-uptake it was 53%.
For the compound `CN(C)CC1CCC=C1c1cccnc1` (stereo not drawn) [Example 29, Dimethyl-(2-pyridin-3-yl-cyclopent-2-enylmethyl)-amine hydrochloride], the inhibition at 10 µM at 5-HT re-uptake was 69%; against NA re-uptake it was 64%.
Taken in the same sequence, the figures for `CN(C)CC1CCCCCC=C1c1cccnc1` (stereo not drawn) [Example 33, Dimethyl-(2-pyridin-3-yl-cyclooct-2-enylmethyl)-amine hydrochloride] were 74% and 50%.
Taken in the same sequence, the figures for `CN(C)CC1=C(c2ccncc2)CCCCC1` [Example 38, Dimethyl-(2-pyridin-4-yl-cyclohept-1-enylmethyl)-amine hydrochloride] were 76% and 73%.
Taken in the same sequence, the figures for `CN(C)CC1CCCCC=C1c1ccc(Cl)nc1` (stereo not drawn) [Example 48, [2-(6-chloro-pyridin-3-yl)-cyclohept-2-enylmethyl]-dimethyl-amine hydrochloride] were 81% and 82%.
Take `CN(C)CC1=C(c2ccc(Cl)nc2)CCCC1` [Example 49, [2-(6-Chloro-pyridin-3-yl)-cyclohex-1-enylmethyl]-dimethyl-amine hydrochloride]: the inhibition at 10 µM on 5-HT re-uptake came out at 55%; against NA re-uptake, 67%.
Taken in the same sequence, the figures for `COc1cncc(C2=C(CN(C)C)CCCC2)c1` [Example 54, [2-(5-Methoxy-pyridin-3-yl)-cyclohex-1-enylmethyl]-dimethyl-amine hydrochloride] were 85% and 17%.
`COc1cncc(C2=CCCCC2CN(C)C)c1` (stereo not drawn) [Example 55, [2-(5-Methoxy-pyridin-3-yl)-cyclohex-2-enylmethyl]-dimethyl-amine hydrochloride]: the inhibition at 10 µM turned out to be 67% on 5-HT re-uptake and 34% against NA re-uptake.
Taken in the same sequence, the figures for `COc1cncc(C2CCCCCC2CN(C)C)c1` (stereo not drawn) [Example 60, [2-(5-Methoxy-pyridin-3-yl)-cycloheptylmethyl] -dimethyl-amine hydrochloride] were 75% and 30%.
Taken in the same sequence, the figures for `COc1cncc(C2CCCCC2CN(C)C)c1` (stereo not drawn) [Example 62, [2-(5-Methoxy-pyridin-3-yl)-cyclohexylmethyl] -dimethyl-amine hydrochloride] were 77% and 13%.
Taken in the same sequence, the figures for `CN(C)CC1=C(c2cncc(O)c2)CCCC1` [Example 64, 5-(2-Dimethylaminomethyl-cyclohex-1-enyl)-pyridin-3-ol hydrochloride] were 68% and 6%.
Consider `CN(C)CC1=C(c2ccc(Cl)nc2)CCCC1.Cl` [Example 68, [2-(6-Chloro-pyridin-3-yl)-cyclohex-1-enylmethyl]-dimethyl-amine hydrochloride], for which, at 5-HT re-uptake (hydrochloride), the “5-HT re-uptake inhibition (10 μmol/l)” value is given as 67%. On NA re-uptake (hydrochloride), the “NA re-uptake inhibition (10 μmol/l)” value turned out to be 62%.
As to `CN(C)CC1CCCCCC=C1c1ccc(Cl)nc1` (stereo not drawn) [Example 71, [2-(6-Chloro-pyridin-3-yl)-cyclooct-2-enylmethyl] -dimethyl-amine hydrochloride], the inhibition at 10 µM on 5-HT re-uptake was determined as 74%; on NA re-uptake it was 77%.
As to `COc1cncc(C2=CCCCCCC2CN(C)C)c1` (stereo not drawn) [Example 73, [2-(5-Methoxy-pyridin-3-yl)-cyclooct-2-enylmethyl] -dimethyl-amine hydrochloride], the values for the inhibition at 10 µM at 5-HT re-uptake and against NA re-uptake were 89% and 55%, respectively.
`COc1cncc(C2=C(CN(C)C)CCCCCC2)c1` [Example 74, [2-(5-Methoxy-pyridin-3-yl)-cyclooct-1-enylmethyl] -dimethyl-amine hydrochloride]: the inhibition at 10 µM came out at 72% on 5-HT re-uptake and 56% against NA re-uptake.
